Test results: ChEMBL document CHEMBL4507276 (2021)

Tests used:
[1] = target: Mitogen-activated protein kinase kinase kinase 13 (Homo sapiens) (UniProt O43283); settings: Compound concentration 1000.0 nM
[2] = target: Alpha-2B adrenergic receptor (Homo sapiens) (UniProt P18089); settings: Compound concentration 10.0 uM
[3] = target: Calcium/calmodulin-dependent protein kinase type II subunit alpha (Homo sapiens) (UniProt Q9UQM7); test: CAMK2ALPHA(H) Cerep selectivity data (BI); settings: Compound concentration 20.0 uM
Sequence of Calcium/calmodulin-dependent protein kinase type II subunit alpha (Homo sapiens) (Q9UQM7 whole entry): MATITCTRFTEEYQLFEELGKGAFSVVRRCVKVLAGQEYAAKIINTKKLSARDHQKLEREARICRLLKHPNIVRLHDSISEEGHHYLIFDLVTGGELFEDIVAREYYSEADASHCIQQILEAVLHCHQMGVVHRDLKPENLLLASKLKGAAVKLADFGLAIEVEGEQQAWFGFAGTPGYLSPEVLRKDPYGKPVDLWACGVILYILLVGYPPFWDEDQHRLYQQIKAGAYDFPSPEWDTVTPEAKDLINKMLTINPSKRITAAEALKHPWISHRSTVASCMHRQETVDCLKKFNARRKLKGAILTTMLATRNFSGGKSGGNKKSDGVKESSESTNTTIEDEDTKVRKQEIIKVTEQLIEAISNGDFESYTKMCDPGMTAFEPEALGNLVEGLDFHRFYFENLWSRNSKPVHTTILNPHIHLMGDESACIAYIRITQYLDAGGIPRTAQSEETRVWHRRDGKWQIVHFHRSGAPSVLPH

[4] = target: Prostaglandin F2-alpha receptor (Homo sapiens) (UniProt P43088); test: FPH_AGON Cerep selectivity data (BI); settings: filed as agonist, Compound concentration 20.0 uM
[5] = target: Histamine H4 receptor (Homo sapiens) (UniProt Q9H3N8); test: H4/H AG Cerep selectivity data (BI); settings: filed as agonist, Compound concentration 20.0 uM
[6] = target: Neprilysin (Homo sapiens) (UniProt P08473); test: N_ENDOPEP Cerep selectivity data (BI); settings: Compound concentration 20.0 uM
[7] = target: Phosphatidylinositol 3-kinase regulatory subunit gamma (Bos taurus) (UniProt O46404); test: PROTKINP55 Cerep selectivity data (BI); settings: Compound concentration 20.0 uM
[8] = target: D(1A) dopamine receptor (Homo sapiens) (UniProt P21728); test: D1/HU Eurofins-Panlabs selectivity data (BI); settings: Compound concentration 10.0 uM
Sequence of D(1A) dopamine receptor (Homo sapiens) (P21728 whole entry): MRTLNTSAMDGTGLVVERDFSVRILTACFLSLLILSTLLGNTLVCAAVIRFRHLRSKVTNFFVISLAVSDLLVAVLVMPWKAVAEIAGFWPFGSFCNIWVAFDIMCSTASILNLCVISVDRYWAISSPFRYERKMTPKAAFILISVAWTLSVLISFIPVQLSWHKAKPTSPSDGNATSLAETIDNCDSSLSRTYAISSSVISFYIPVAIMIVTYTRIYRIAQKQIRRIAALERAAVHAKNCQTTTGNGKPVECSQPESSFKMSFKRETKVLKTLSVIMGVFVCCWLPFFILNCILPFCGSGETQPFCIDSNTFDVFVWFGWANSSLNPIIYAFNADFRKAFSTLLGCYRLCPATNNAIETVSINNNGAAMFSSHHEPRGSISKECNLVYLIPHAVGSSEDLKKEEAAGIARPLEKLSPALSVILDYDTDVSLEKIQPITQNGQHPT

[9] = target: D(2) dopamine receptor (Homo sapiens) (UniProt P14416); test: D2S/HU Eurofins-Panlabs selectivity data (BI); settings: Compound concentration 10.0 uM
Sequence of D(2) dopamine receptor (Homo sapiens) (P14416 whole entry): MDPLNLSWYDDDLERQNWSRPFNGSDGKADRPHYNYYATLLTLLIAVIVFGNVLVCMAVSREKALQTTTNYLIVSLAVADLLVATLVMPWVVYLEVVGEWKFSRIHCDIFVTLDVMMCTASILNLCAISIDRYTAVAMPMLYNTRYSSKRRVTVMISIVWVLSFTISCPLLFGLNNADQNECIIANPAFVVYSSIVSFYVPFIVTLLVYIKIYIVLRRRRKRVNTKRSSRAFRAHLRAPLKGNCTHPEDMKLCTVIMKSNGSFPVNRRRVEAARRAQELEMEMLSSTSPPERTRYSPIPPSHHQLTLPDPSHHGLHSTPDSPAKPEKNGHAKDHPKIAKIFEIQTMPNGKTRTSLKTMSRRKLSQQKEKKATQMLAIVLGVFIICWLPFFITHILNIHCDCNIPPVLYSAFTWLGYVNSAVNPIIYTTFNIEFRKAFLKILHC

[10] = target: Gamma-aminobutyric acid receptor subunit alpha-1 (Rattus norvegicus) (UniProt P62813); test: GABAACENTR Eurofins-Panlabs selectivity data (BI); settings: Compound concentration 10.0 uM
[11] = target: Neuropeptide Y receptor type 2 (Homo sapiens) (UniProt P49146); test: Y2/HU Eurofins-Panlabs selectivity data (BI); settings: Compound concentration 10.0 uM
Sequence of Neuropeptide Y receptor type 2 (Homo sapiens) (P49146 whole entry): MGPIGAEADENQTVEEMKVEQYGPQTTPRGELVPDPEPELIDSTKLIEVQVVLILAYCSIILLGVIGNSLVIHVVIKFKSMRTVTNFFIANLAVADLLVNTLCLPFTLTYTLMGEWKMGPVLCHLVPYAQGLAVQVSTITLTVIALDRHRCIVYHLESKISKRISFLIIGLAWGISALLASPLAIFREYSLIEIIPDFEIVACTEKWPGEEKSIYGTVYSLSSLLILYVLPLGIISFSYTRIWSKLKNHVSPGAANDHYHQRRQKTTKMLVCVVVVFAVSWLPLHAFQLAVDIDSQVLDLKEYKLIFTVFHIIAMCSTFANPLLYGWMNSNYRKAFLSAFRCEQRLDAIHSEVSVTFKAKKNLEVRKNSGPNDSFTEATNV

[12] = target: Cyclin-dependent kinase 5/CDK5 activator 1 (Homo sapiens) (UniProt Q00535+Q15078); test: CDK5/P35 Invitrogen selectivity data (BI); type: protein-complex assay; settings: Compound concentration 3.0 uM
Sequence of Cyclin-dependent kinase 5/CDK5 activator 1 (Homo sapiens) (Q00535 whole entry): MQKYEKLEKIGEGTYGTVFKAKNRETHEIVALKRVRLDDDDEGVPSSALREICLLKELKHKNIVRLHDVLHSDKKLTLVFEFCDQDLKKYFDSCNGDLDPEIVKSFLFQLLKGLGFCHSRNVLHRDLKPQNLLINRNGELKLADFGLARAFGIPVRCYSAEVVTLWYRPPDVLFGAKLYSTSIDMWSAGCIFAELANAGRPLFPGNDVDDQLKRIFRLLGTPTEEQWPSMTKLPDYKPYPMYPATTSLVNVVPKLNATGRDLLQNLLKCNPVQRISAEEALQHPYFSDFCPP
Sequence of Cyclin-dependent kinase 5/CDK5 activator 1 (Homo sapiens) (Q15078 99-307 partner limits assumed): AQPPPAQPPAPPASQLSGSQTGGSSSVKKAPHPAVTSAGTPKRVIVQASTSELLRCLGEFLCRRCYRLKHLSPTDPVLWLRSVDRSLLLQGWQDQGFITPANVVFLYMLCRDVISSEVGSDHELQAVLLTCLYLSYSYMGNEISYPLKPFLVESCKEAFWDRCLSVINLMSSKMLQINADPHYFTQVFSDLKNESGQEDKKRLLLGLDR

[13] = target: CDK8/Cyclin C (Homo sapiens) (UniProt P49336+P24863); test: CDK8_CYCLINC Invitrogen selectivity data (BI); type: protein-complex assay; settings: Compound concentration 3.0 uM
[14] = target: Casein kinase II subunit alpha' (Homo sapiens) (UniProt P19784); test: CSNK2A2 Invitrogen selectivity data (BI); settings: Compound concentration 3.0 uM
Sequence of Casein kinase II subunit alpha' (Homo sapiens) (P19784 whole entry, looked up): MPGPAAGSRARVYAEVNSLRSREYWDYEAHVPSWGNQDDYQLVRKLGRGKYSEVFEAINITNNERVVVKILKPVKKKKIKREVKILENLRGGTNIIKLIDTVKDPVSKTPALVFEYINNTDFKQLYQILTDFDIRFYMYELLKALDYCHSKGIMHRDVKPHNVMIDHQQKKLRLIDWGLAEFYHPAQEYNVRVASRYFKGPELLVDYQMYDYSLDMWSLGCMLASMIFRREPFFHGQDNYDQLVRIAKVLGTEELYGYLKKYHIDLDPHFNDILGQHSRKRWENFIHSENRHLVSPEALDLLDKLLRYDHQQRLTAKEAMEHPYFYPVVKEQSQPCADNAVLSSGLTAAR

[15] = target: Fibroblast growth factor receptor 2 (Homo sapiens) (UniProt P21802); test: FGFR2 Invitrogen selectivity data (BI); settings: Compound concentration 3.0 uM
[16] = test system: Fibroblast growth factor receptor 3 (Homo sapiens), P22607 [K650E]; test: FGFR3 K650E Invitrogen selectivity data (BI); settings: Compound concentration 3.0 uM
[17] = target: Vascular endothelial growth factor receptor 3 (Homo sapiens) (UniProt P35916); test: FLT4 Invitrogen selectivity data (BI); settings: Compound concentration 3.0 uM
[18] = target: Tyrosine-protein kinase Lyn (Homo sapiens) (UniProt P07948); test: LYN B Invitrogen selectivity data (BI); settings: Compound concentration 3.0 uM
[19] = target: Mitogen-activated protein kinase 3 (Homo sapiens) (UniProt P27361); test: MAPK3 Invitrogen selectivity data (BI); settings: Compound concentration 3.0 uM
Sequence of Mitogen-activated protein kinase 3 (Homo sapiens) (P27361 whole entry): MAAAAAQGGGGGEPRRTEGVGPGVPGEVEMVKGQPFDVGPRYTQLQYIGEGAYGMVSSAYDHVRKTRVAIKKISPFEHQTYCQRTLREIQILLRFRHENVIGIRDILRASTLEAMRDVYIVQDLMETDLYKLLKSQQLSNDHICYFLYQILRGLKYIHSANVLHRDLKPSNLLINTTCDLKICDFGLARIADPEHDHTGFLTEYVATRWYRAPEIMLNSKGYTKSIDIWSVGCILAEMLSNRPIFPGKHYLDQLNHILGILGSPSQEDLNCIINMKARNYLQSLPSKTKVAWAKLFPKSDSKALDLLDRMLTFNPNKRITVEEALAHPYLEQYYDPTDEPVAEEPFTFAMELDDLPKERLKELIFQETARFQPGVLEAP

[20] = target: NT-3 growth factor receptor (Homo sapiens) (UniProt Q16288); test: NTRK3 Invitrogen selectivity data (BI); settings: Compound concentration 3.0 uM
Sequence of NT-3 growth factor receptor (Homo sapiens) (Q16288 32-839 limits assumed): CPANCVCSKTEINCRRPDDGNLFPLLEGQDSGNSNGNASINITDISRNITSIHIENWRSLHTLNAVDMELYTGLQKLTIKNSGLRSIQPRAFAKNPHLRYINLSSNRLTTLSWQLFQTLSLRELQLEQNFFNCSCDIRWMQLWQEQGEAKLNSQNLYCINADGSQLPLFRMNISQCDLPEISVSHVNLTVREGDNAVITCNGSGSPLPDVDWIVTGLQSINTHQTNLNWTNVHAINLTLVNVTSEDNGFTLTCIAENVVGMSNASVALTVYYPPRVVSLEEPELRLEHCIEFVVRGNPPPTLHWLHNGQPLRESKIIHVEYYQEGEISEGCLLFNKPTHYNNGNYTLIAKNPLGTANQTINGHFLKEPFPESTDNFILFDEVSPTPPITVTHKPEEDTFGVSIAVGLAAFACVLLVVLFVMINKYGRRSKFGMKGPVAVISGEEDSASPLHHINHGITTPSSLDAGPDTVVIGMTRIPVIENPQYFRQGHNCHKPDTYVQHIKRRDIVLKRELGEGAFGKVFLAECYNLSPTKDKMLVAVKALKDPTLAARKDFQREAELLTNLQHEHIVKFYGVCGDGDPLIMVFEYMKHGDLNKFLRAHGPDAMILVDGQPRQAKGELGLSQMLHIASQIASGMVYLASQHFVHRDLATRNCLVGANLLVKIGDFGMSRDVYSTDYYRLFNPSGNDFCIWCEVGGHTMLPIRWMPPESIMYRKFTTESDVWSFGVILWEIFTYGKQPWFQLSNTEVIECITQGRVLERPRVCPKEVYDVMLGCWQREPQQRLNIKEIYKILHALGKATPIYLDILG

[21] = target: Phosphatidylinositol 4-kinase alpha (Homo sapiens) (UniProt P42356); test: PI4KA Invitrogen selectivity data (BI); settings: Compound concentration 3.0 uM
[22] = target: Protein kinase C epsilon type (Homo sapiens) (UniProt Q02156); test: PRKCE Invitrogen selectivity data (BI); settings: Compound concentration 3.0 uM
[23] = test system: Proto-oncogene tyrosine-protein kinase receptor Ret (Homo sapiens), P07949 [Y791F]; test: RET Y791F Invitrogen selectivity data (BI); settings: Compound concentration 3.0 uM
[24] = target: Testis-specific serine/threonine-protein kinase 2 (Homo sapiens) (UniProt Q96PF2); test: STK22B Invitrogen selectivity data (BI); settings: Compound concentration 3.0 uM
[25] = target: T1, Testis-specific serine/threonine-protein kinase 3 (Homo sapiens) (UniProt Q96PN8); test: STK22D Invitrogen selectivity data (BI); settings: Compound concentration 3.0 uM
T1 sequence (whole entry): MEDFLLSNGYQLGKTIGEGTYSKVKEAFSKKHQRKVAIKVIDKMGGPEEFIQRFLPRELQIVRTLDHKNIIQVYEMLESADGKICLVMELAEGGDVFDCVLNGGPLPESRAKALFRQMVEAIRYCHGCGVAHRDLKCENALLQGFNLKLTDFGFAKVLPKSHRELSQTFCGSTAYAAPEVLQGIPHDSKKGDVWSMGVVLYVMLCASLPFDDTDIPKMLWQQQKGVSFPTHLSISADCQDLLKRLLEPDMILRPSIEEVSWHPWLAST

[26] = target: T2, Serine/threonine-protein kinase 4 (Homo sapiens) (UniProt Q13043); test: STK4 Invitrogen selectivity data (BI); settings: Compound concentration 3.0 uM
T2 sequence (whole entry): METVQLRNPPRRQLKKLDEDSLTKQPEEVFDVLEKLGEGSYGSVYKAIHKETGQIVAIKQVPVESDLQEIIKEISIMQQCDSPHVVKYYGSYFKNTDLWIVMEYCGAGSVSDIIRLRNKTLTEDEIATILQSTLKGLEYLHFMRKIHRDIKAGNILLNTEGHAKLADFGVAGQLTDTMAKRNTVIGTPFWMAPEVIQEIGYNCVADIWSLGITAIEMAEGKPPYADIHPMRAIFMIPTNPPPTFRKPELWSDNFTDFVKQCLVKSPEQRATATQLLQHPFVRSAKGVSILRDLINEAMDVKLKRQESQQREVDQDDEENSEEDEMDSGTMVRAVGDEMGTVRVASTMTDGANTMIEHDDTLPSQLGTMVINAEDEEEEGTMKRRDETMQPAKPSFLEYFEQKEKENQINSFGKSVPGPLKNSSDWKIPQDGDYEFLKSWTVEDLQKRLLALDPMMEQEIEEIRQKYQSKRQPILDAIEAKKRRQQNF

Sequence of Alpha-2B adrenergic receptor (Homo sapiens) (P18089 whole entry): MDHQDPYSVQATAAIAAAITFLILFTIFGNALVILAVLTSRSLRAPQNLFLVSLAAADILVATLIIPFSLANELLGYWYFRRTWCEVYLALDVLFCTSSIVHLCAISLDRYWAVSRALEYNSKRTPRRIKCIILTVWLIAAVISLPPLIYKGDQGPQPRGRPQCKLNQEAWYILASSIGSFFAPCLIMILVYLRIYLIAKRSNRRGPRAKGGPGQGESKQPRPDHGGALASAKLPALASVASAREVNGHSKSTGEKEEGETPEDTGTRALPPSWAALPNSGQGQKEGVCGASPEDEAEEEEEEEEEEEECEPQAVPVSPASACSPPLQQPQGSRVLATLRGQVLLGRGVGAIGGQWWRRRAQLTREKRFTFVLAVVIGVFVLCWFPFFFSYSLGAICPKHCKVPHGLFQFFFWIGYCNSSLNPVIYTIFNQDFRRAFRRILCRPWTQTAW

CN(C)C(=O)Cn1cc(-c2nc(C3(c4ccc(-c5cnc(N)nc5)cc4)CC3)no2)cn1 [BI 0153]
inactive: residual activity [1] 100% | inhibition [2] -3.57%

CN(C)C(=O)Cn1cc(-c2nc([C@@](C)(c3ccc(-c4cnc(N)nc4)cc3)C3CC3)no2)cn1 [BI 665915]
inactive: residual activity [3] 111% | residual activity [4] 84% | residual activity [5] 109% | residual activity [6] 108% | residual activity [7] 98% | residual activity [8] 108% | residual activity [9] 94% | residual activity [10] 115% | residual activity [11] 97% | residual activity [12] 100% | residual activity [13] 94% | residual activity [14] 94.5% | residual activity [15] 89% | residual activity [16] 91% | residual activity [17] 69.5% | residual activity [18] 89% | residual activity [19] 97% | residual activity [20] 93% | residual activity [21] 106% | residual activity [22] 86.5% | residual activity [23] 60% | residual activity [24] 93% | residual activity [25] 96.5% | residual activity [26] 99%
